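Cultured in 96-well plates, cells were exposed to test compound for 48 hours across five concentrations. Abbreviation: GI50, concentration required for 50% inhibition of growth.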 Active and inactive are the calls of the source. Cut-off read from the data, not from the text of the source: active = GI50 up to about 1.1 µM and inactive = higher.
Assays:
Assay in all cases: NCI anticancer screen, dose series, 48 h
[1] = tested on: 786-0
[2] = tested on: A498
[3] = tested on: A549
[4] = tested on: ACHN
[5] = tested on: BT-549
[6] = tested on: CAKI-1
[7] = tested on: COLO 205
[8] = tested on: DU-145
[9] = tested on: EKVX
[10] = tested on: HCT-116
[11] = tested on: HCT-15
[12] = tested on: HL-60
[13] = tested on: HOP-62
[14] = tested on: HOP-92
[15] = tested on: HT-29
[16] = tested on: Hs-578T
[17] = tested on: IGROV-1
[18] = tested on: K562
[19] = tested on: KM12
[20] = tested on: LOX IMVI
[21] = tested on: M14
[22] = tested on: MCF7
[23] = tested on: MDA-MB-231
[24] = tested on: MDA-MB-435
[25] = tested on: MDA-N
[26] = tested on: MOLT-4
[27] = tested on: Malme-3M
[28] = tested on: NCI-H226
[29] = tested on: NCI-H23
[30] = tested on: NCI-H460
[31] = tested on: NCI-H522
[32] = tested on: NCI/ADR-RES
[33] = tested on: OVCAR-4
[34] = tested on: OVCAR-5
[35] = tested on: OVCAR-8
[36] = tested on: PC-3
[37] = tested on: RXF 393
[38] = tested on: SF-268
[39] = tested on: SF-295
[40] = tested on: SF-539
[41] = tested on: SK-MEL-28
[42] = tested on: SK-MEL-2
[43] = tested on: SK-MEL-5
[44] = tested on: SK-OV-3
[45] = tested on: SN12C
[46] = tested on: SNB-19
[47] = tested on: SNB-75
[48] = tested on: SR
[49] = tested on: SW-620
[50] = tested on: T47D
[51] = tested on: TK-10
[52] = tested on: U-251
[53] = tested on: UACC-257
[54] = tested on: UACC-62
[55] = tested on: UO-31
[56] = tested on: CCRF-CEM
[57] = tested on: OVCAR-3
[58] = tested on: HCC 2998
[59] = tested on: RPMI-8226

COC(=O)c1nn2ccc3ccccc3c2c1C(=O)OC
GI50 [1]: 75.2 µM (inactive) | GI50 [2]: 22.5 µM (inactive) | GI50 [3]: > 100 µM (inactive) | GI50 [4]: > 100 µM (inactive) | GI50 [5]: 63.5 µM (inactive) | GI50 [6]: 48.9 µM (inactive) | GI50 [7]: > 100 µM (inactive) | GI50 [8]: > 100 µM (inactive) | GI50 [9]: 2.37 µM (inactive) | GI50 [10]: 65.9 µM (inactive) | GI50 [11]: 54.3 µM | GI50 [12]: 21.3 µM (inactive) | GI50 [13]: 50.8 µM (inactive) | GI50 [14]: 96.2 µM (inactive) | GI50 [15]: 48 µM (inactive) | GI50 [16]: > 100 µM (inactive) | GI50 [17]: 88.9 µM (inactive) | GI50 [18]: 58.7 µM (inactive) | GI50 [19]: 58.7 µM (inactive) | GI50 [20]: 83.6 µM (inactive) | GI50 [21]: 33 µM (inactive) | GI50 [22]: > 100 µM (inactive) | GI50 [23]: 53 µM (inactive) | GI50 [24]: 76.7 µM (inactive) | GI50 [25]: 34.8 µM (inactive) | GI50 [26]: 39.9 µM (inactive) | GI50 [27]: > 100 µM (inactive) | GI50 [28]: > 100 µM (inactive) | GI50 [29]: > 100 µM (inactive) | GI50 [30]: > 100 µM (inactive) | GI50 [31]: > 100 µM (inactive) | GI50 [32]: 62.7 µM (inactive) | GI50 [33]: > 100 µM (inactive) | GI50 [34]: > 100 µM (inactive) | GI50 [35]: > 100 µM (inactive) | GI50 [36]: 47.8 µM (inactive) | GI50 [37]: 59.2 µM (inactive) | GI50 [38]: > 100 µM (inactive) | GI50 [39]: > 100 µM (inactive) | GI50 [40]: > 100 µM (inactive) | GI50 [41]: > 100 µM (inactive) | GI50 [42]: > 100 µM (inactive) | GI50 [43]: 37 µM (inactive) | GI50 [44]: > 100 µM (inactive) | GI50 [45]: 58.1 µM (inactive) | GI50 [46]: > 100 µM (inactive) | GI50 [47]: 72.8 µM (inactive) | GI50 [48]: 41.1 µM (inactive) | GI50 [49]: > 100 µM (inactive) | GI50 [50]: > 100 µM (inactive) | GI50 [51]: > 100 µM (inactive) | GI50 [52]: > 100 µM (inactive) | GI50 [53]: 60.7 µM (inactive) | GI50 [54]: 36.6 µM (inactive) | GI50 [55]: 32.2 µM (inactive)

Cc1c2ccccc2c(C2C3C(=O)N(c4cccc5ccccc45)C(=O)C3ON2Cc2ccc(CC(N)=O)cc2)c2ccccc12 (stereo not given)
GI50 [1]: 24.4 µM (inactive) | GI50 [2]: 35.6 µM (inactive) | GI50 [3]: 16.3 µM (inactive) | GI50 [4]: 18.5 µM (inactive) | GI50 [5]: 30.2 µM (inactive) | GI50 [6]: 29.3 µM (inactive) | GI50 [56]: 14.7 µM (inactive) | GI50 [7]: 7.78 µM (inactive) | GI50 [8]: 18.9 µM (inactive) | GI50 [9]: 14.2 µM (inactive) | GI50 [10]: 18.2 µM (inactive) | GI50 [11]: 18.4 µM | GI50 [12]: 16.1 µM (inactive) | GI50 [13]: 23 µM (inactive) | GI50 [14]: 15.6 µM (inactive) | GI50 [15]: 10.2 µM (inactive) | GI50 [16]: 27.6 µM (inactive) | GI50 [17]: 17.7 µM (inactive) | GI50 [18]: 15.7 µM (inactive) | GI50 [19]: 18.2 µM (inactive) | GI50 [20]: 18.9 µM (inactive) | GI50 [21]: 15 µM (inactive) | GI50 [22]: 14.8 µM (inactive) | GI50 [23]: 23.3 µM (inactive) | GI50 [24]: 17.9 µM (inactive) | GI50 [25]: 11.5 µM (inactive) | GI50 [26]: 8.24 µM (inactive) | GI50 [27]: 28.6 µM (inactive) | GI50 [28]: 13.4 µM (inactive) | GI50 [29]: 25.1 µM (inactive) | GI50 [30]: 13.5 µM (inactive) | GI50 [31]: 18.9 µM (inactive) | GI50 [32]: 39.7 µM (inactive) | GI50 [57]: 18.8 µM (inactive) | GI50 [33]: 19 µM (inactive) | GI50 [34]: 24.9 µM (inactive) | GI50 [35]: 22.4 µM (inactive) | GI50 [36]: 17.4 µM (inactive) | GI50 [37]: 8.59 µM (inactive) | GI50 [38]: 23.6 µM (inactive) | GI50 [39]: 16.3 µM (inactive) | GI50 [40]: 12 µM (inactive) | GI50 [41]: > 50 µM (inactive) | GI50 [42]: 10.8 µM (inactive) | GI50 [43]: 10.5 µM (inactive) | GI50 [44]: 30.8 µM (inactive) | GI50 [45]: 15.3 µM (inactive) | GI50 [46]: 19.6 µM (inactive) | GI50 [47]: 9.55 µM (inactive) | GI50 [48]: 14 µM (inactive) | GI50 [49]: 20.3 µM (inactive) | GI50 [50]: 15 µM (inactive) | GI50 [51]: 16.7 µM (inactive) | GI50 [52]: 19.8 µM (inactive) | GI50 [53]: 12.2 µM (inactive) | GI50 [54]: 14.4 µM (inactive) | GI50 [55]: 24.7 µM (inactive)

CCOC(=O)c1sc2nc(SC)nc3c2c1NCN3c1ccc(F)c(F)c1
GI50 [1]: 4.82 µM (inactive) | GI50 [2]: 12.6 µM (inactive) | GI50 [3]: 8.04 µM (inactive) | GI50 [4]: 6.97 µM (inactive) | GI50 [5]: 6.79 µM (inactive) | GI50 [6]: > 52.5 µM (inactive) | GI50 [56]: 16.7 µM (inactive) | GI50 [7]: > 100 µM (inactive) | GI50 [8]: 8.43 µM (inactive) | GI50 [9]: 32.4 µM (inactive) | GI50 [58]: > 36.1 µM (inactive) | GI50 [10]: 9.02 µM (inactive) | GI50 [11]: 12.4 µM | GI50 [12]: > 100 µM (inactive) | GI50 [13]: 12.1 µM (inactive) | GI50 [14]: 18.5 µM (inactive) | GI50 [15]: 29.8 µM (inactive) | GI50 [16]: 4.28 µM (inactive) | GI50 [17]: 43.1 µM (inactive) | GI50 [18]: > 100 µM (inactive) | GI50 [19]: 10.7 µM (inactive) | GI50 [20]: 6.59 µM (inactive) | GI50 [21]: 31.4 µM (inactive) | GI50 [22]: 36 µM (inactive) | GI50 [23]: 13 µM (inactive) | GI50 [24]: 6.81 µM (inactive) | GI50 [25]: 18.3 µM (inactive) | GI50 [26]: > 55.2 µM (inactive) | GI50 [27]: 7.59 µM (inactive) | GI50 [28]: 29.9 µM (inactive) | GI50 [29]: 14.6 µM (inactive) | GI50 [30]: 8.63 µM (inactive) | GI50 [31]: 21.1 µM (inactive) | GI50 [32]: 9.98 µM (inactive) | GI50 [57]: 5.57 µM (inactive) | GI50 [33]: 4.76 µM (inactive) | GI50 [34]: > 100 µM (inactive) | GI50 [35]: 5.27 µM (inactive) | GI50 [36]: 16.4 µM (inactive) | GI50 [59]: 9.93 µM (inactive) | GI50 [37]: 6.43 µM (inactive) | GI50 [38]: 9.84 µM (inactive) | GI50 [39]: 24.2 µM (inactive) | GI50 [40]: 5.2 µM (inactive) | GI50 [41]: 23.7 µM (inactive) | GI50 [42]: > 71 µM (inactive) | GI50 [43]: > 71.9 µM (inactive) | GI50 [44]: 19.2 µM (inactive) | GI50 [45]: 30.5 µM (inactive) | GI50 [46]: 34.8 µM (inactive) | GI50 [48]: > 21.5 µM (inactive) | GI50 [49]: 10 µM (inactive) | GI50 [50]: 29.4 µM (inactive) | GI50 [51]: 22.6 µM (inactive) | GI50 [52]: 9.27 µM (inactive) | GI50 [53]: > 45.8 µM (inactive) | GI50 [54]: > 52.4 µM (inactive) | GI50 [55]: 22.1 µM (inactive)
